# Test results as given in patent US9549932B2, “2-(morpholin-4-yl)-1,7-naphthyridines” (BAYER PHARMA AKTIENGESELLSCHAFT, priority 2014, dated 2017).
# Counter-ions that a name gives are not always drawn.
# Target: full-length human ATR protein (Homo sapiens (Human), UniProt Q13535)
# Experiment: Binding assay ATR (TR-FRET tracer displacement)
# Conditions: tracer A, TR-FRET; read-out: ATR binding (tracer A) IC50
# Method in brief: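 Full-length human GST-ATR co-purified with ATRIP, pre-complexed 30 min at 22 °C with anti-GST-Tb antibody, then pre-bound with compound 10 min. Tracer A or B added (2 µl of 100 nM solution), 30 min at 22 °C.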
# Chain of full-length human ATR protein (Q13535 other isoform, or with tags, fused parts or gaps): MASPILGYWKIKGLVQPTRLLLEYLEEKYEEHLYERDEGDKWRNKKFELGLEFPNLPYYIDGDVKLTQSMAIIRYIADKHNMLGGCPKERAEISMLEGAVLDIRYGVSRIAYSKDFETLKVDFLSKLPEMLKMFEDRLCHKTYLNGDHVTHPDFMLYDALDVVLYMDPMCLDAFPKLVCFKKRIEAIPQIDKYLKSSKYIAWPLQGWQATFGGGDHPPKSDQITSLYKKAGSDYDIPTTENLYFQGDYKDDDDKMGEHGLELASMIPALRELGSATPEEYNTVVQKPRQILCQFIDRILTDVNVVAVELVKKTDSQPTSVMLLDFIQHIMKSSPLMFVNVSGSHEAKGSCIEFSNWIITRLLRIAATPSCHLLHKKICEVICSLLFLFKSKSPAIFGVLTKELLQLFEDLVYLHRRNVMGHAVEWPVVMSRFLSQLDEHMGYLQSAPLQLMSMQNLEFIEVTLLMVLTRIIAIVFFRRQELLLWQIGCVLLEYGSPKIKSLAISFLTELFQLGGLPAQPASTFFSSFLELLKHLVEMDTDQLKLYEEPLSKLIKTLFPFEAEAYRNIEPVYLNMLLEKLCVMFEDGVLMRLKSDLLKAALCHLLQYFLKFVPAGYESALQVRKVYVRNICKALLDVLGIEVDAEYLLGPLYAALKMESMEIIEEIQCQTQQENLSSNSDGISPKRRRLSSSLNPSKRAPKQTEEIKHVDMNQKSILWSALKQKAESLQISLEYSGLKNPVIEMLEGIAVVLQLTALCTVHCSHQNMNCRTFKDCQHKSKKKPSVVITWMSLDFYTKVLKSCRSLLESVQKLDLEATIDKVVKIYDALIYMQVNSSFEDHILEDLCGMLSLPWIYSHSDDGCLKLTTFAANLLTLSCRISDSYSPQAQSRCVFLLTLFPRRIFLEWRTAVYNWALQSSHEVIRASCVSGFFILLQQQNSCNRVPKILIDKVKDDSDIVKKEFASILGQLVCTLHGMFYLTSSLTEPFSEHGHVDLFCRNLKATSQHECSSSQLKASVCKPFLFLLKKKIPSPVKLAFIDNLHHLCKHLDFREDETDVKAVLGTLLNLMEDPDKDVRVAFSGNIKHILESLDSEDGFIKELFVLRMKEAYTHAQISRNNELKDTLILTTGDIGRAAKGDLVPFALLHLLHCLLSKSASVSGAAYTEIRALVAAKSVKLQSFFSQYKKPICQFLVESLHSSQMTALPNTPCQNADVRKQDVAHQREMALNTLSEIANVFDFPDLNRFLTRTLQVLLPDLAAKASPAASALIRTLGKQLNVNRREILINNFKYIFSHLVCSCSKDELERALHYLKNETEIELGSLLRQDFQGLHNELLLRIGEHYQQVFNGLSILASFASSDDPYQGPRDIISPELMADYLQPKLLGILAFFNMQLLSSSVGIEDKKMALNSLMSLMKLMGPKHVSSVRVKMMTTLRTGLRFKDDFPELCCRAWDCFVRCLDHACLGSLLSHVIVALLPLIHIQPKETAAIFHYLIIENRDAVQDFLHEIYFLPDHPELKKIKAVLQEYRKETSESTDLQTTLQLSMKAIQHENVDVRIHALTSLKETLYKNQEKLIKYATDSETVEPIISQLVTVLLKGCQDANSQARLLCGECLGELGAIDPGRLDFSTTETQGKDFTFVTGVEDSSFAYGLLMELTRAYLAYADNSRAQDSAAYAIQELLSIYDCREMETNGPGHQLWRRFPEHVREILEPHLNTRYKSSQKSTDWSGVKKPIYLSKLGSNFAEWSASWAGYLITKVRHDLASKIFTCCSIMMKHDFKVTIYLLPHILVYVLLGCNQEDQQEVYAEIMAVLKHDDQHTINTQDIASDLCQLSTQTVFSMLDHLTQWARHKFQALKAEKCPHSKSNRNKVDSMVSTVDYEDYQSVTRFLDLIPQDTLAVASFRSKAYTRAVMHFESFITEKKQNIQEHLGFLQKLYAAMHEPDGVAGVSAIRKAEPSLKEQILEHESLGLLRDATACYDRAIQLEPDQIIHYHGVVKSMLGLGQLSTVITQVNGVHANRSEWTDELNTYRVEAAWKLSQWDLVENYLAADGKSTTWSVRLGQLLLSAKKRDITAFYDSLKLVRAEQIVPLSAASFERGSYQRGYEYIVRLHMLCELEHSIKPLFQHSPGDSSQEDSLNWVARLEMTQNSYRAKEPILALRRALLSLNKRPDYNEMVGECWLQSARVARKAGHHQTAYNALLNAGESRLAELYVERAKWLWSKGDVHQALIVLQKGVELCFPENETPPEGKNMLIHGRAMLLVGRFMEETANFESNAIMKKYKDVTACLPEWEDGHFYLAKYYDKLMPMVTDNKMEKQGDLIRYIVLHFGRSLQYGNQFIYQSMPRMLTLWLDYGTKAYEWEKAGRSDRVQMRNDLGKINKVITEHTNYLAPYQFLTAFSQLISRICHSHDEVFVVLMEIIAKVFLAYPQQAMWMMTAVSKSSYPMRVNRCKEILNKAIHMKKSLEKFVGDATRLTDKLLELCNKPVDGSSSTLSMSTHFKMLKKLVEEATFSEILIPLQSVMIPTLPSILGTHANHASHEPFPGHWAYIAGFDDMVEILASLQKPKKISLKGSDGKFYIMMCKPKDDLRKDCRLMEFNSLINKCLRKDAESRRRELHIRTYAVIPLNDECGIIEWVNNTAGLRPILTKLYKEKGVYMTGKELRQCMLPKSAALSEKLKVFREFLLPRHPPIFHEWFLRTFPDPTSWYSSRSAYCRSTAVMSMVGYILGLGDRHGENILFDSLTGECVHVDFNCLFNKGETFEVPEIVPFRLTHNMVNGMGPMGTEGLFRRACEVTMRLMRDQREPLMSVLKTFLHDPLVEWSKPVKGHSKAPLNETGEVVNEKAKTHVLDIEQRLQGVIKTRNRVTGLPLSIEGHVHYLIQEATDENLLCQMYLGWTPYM
# Chain of full-length human ATR protein (Q8WXE1 other isoform, or with tags, fused parts or gaps partner): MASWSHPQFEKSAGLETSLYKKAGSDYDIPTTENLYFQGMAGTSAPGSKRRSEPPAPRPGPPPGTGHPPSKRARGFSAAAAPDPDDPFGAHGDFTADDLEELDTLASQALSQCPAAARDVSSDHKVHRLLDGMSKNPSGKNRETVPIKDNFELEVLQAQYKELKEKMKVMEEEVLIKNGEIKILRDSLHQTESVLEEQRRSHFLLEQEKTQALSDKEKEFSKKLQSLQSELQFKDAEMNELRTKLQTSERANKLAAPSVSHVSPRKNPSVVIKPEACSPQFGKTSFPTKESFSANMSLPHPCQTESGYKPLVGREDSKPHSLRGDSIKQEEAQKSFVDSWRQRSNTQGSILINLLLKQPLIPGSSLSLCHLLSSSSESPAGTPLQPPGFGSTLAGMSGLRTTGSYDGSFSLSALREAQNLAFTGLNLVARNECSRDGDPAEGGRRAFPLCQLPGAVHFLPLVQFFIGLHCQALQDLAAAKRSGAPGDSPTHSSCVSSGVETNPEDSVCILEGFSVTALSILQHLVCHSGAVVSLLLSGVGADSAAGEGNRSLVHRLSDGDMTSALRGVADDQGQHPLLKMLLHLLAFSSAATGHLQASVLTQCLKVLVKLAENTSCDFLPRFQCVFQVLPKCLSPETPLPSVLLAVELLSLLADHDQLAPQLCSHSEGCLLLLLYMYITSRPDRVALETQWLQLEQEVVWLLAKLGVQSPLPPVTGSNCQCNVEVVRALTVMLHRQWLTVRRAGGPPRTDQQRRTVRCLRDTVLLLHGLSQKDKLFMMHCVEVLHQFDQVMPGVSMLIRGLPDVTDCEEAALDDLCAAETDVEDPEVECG
row,SMILES,IC50 [µM]
1,"C[C@@H]1COCCN1c1cc(-c2cc(S(C)(=O)=O)ccc2F)c2ccnc(-c3ccn[nH]3)c2n1 [Example 150, 4-[2-fluoro-5-(methylsulfonyl)phenyl]-2-[(3R)-3-methylmorpholin-4-yl]-8-(1H-pyrazol-5-yl)-1,7-naphthyridine]",0.0503
2,"OC1CCN(c2cc(N3CCOCC3)nc3c(-c4ccn[nH]4)nccc23)CC1 [Example 409, 1-[2-(morpholin-4-yl)-8-(1H-pyrazol-5-yl)-1,7-naphthyridin-4-yl]piperidin-4-ol]",0.139
3,"CN(c1ccccc1F)c1cc(N2CCOCC2)nc2c(-c3ccn[nH]3)nccc12 [Example 427, N-(2-fluorophenyl)-N-methyl-2-(morpholin-4-yl)-8-(1H-pyrazol-5-yl)-1,7-naphthyridin-4-amine]",0.112
4,"CCOP(=O)(CC(C)C)c1cc(N2CCOC[C@H]2C)nc2c(-c3ccn[nH]3)nccc12 (stereo partly drawn) [Example 144, Ethyl isobutyl{2-[(3R)-3-methylmorpholin-4-yl]-8-(1H-pyrazol-5-yl)-1,7-naphthyridin-4-yl}phosphinate]",0.0751
5,"c1coc(Cc2cc(N3CCOCC3)nc3c(-c4ccn[nH]4)nccc23)c1 [Example 310, 4-(furan-2-ylmethyI)-2-(morpholin-4-yl)-8-(1H-pyrazol-5-yl)-1,7-naphthyridine]",0.0977
6,"CCn1nc(C(F)(F)F)cc1-c1cc(N2CCOC[C@H]2C)nc2c(-c3ccn[nH]3)nccc12 [Example 119, 4-[1-ethyl-3-(trifluoromethyl)-1H-pyrazol-5-yl]-2-[(3R)-3-methylmorpholin-4-yl]-8-(1H-pyrazol-5-yl)-1,7-naphthyridine]",0.0117
7,"C[C@@H]1COCCN1c1cc(N=S(C)(=O)c2ccc(F)cc2)c2ccnc(-c3ccn[nH]3)c2n1 (stereo partly drawn) [Example 138, 4-{[(4-fluorophenyl)(methyl)oxido-λ^6-sulfanylidene]amino}-2-[(3R)-3-methylmorpholin-4-yl]-8-(1H-pyrazol-5-yl)-1,7-naphthyridine]",0.029
8,"COc1cc(OC)cc(-c2cc(N3CCOCC3)nc3c(-c4ccn[nH]4)nccc23)c1 [Example 307, 4-(3,5-dimethoxyphenyl)-2-(morpholin-4-yl)-8-(1H-pyrazol-5-yl)-1,7-naphthyridine]",0.189
9,"Cc1cc(N2CCOCC2)nc2c(-c3cc[nH]n3)nccc12 [Example 20, 4-methyl-2-(morpholin-4-yl)-8-(1H-pyrazol-3-yl)-[1,7]naphthyridine hydrochloride]",0.816
10,"CCOc1cc(N2CCOCC2)nc2c(-c3cc[nH]n3)nccc12 [Example 43, 4-ethoxy-2-(morpholin-4-yl)-8-(1H-pyrazol-3-yl)-[1,7]naphthyridine]",0.493
11,"c1cnc2c(-c3cc(N4CCOCC4)nc4c(-c5ccn[nH]5)nccc34)cccc2c1 [Example 380, 2-(morpholin-4-yl)-8-(1H-pyrazol-5-yl)-4-(quinolin-8-yl)-1,7-naphthyridine]",1.46
12,"C[C@@H]1COCCN1c1cc(-c2ccn[nH]2)c2ccnc(-c3ccn[nH]3)c2n1 [Example 205, 2-[(3R)-3-methylmorpholin-4-yl]-4,8-di(1H-pyrazol-5-yl)-1,7-naphthyridine]",0.0493
13,"Cc1cc(S(C)(=O)=O)ncc1-c1cc(N2CCOCC2)nc2c(-c3ccn[nH]3)nccc12 [Example 6, 4-[4-methyl-6-(methylsulfonyl)pyridin-3-yl]-2-(morpholin-4-yl)-8-(1H-pyrazol-5-yl)-1,7-naphthyridine]",0.0686
14,"CSc1cncc(-c2cc(N3CCOCC3)nc3c(-c4ccn[nH]4)nccc23)c1 [Example 400, 4-[5-(methylsulfanyl)pyridin-3-yl]-2-(morpholin-4-yl)-8-(1H-pyrazol-5-yl)-1,7-naphthyridine]",0.3
15,"CN(c1ccc(F)cc1)c1cc(N2CCOCC2)nc2c(-c3ccn[nH]3)nccc12 [Example 431, N-(4-fluorophenyl)-N-methyl-2-(morpholin-4-yl)-8-(1H-pyrazol-5-yl)-1,7-naphthyridin-4-amine]",0.0347
16,"C[C@@H]1COCCN1c1cc(N2CCN(C)C(=O)C2)c2ccnc(-c3ccn[nH]3)c2n1 [Example 157, 1-methyl-4-{2-[(3R)-3-methylmorpholin-4-yl]-8-(1H-pyrazol-5-yl)-1,7-naphthyridin-4-yl}piperazin-2-one]",0.0918
17,"FC1CCCN(c2cc(N3CCOCC3)nc3c(-c4ccn[nH]4)nccc23)C1 (centres unmarked) [Example 426, 4-(3-fluoropiperidin-1-yl)-2-(morpholin-4-yl)-8-(1H-pyrazol-5-yl)-1,7-naphthyridine]",0.159
18,"CCOc1ncccc1-c1cc(N2CCOCC2)nc2c(-c3ccn[nH]3)nccc12 [Example 383, 4-(2-ethoxypyridin-3-yl)-2-(morpholin-4-yl)-8-(1H-pyrazol-5-yl)-1,7-naphthyridine]",0.239
19,"C[C@@H]1COCCN1c1cc(-c2ccc(F)cc2N)c2ccnc(-c3ccn[nH]3)c2n1 [Example 131, 5-fluoro-2-{2-[(3R)-3-methylmorpholin-4-yl]-8-(1H-pyrazol-5-yl)-1,7-naphthyridin-4-yl}aniline]",0.0231

row,SMILES,IC50 [µM]
1,"C[C@@H]1COCCN1c1cc(S(C)(=O)=O)c2ccnc(-c3ccn[nH]3)c2n1 [Example 33, 2-[(3R)-3-methylmorpholin-4-yl]-4-(methylsulfonyl)-8-(1H-pyrazol-5-yl)-1,7-naphthyridine]",0.0198
2,"CN1CC=C(c2cc(N3CCOCC3)nc3c(-c4ccn[nH]4)nccc23)CC1 [Example 14, 4-(1-methyl-1,2,3,6-tetrahydropyridin-4-yl)-2-(morpholin-4-yl)-8-(1H-pyrazol-5-yl)-1,7-naphthyridine]",0.162
3,"Cc1ccc(C)c(-c2cc(N3CCOCC3)nc3c(-c4ccn[nH]4)nccc23)c1 [Example 334, 4-(2,5-dimethylphenyl)-2-(morpholin-4-yl)-8-(1H-pyrazol-5-yl)-1,7-naphthyridine]",0.0581
4,"Cc1nn(C)c(C)c1-c1cc(N2CCOC[C@H]2C)nc2c(-c3ccn[nH]3)nccc12 [Example 258, 2-[(3R)-3-methylmorpholin-4-yl]-8-(1H-pyrazol-5-yl)-4-(1,3,5-trimethyl-1H-pyrazol-4-yl)-1,7-naphthyridine]",0.00766
5,"C[C@@H]1COCCN1c1cc(N2CCCC2)c2ccnc(-c3ccn[nH]3)c2n1 [Example 175, 2-[(3R)-3-methylmorpholin-4-yl]-8-(1H-pyrazol-5-yl)-4-(pyrrolidin-1-yl)-1,7-naphthyridine]",0.221
6,"c1cc2c(C3CC3)cc(N3CCOCC3)nc2c(-c2cc[nH]n2)n1 [Example 18, 4-cyclopropyl-2-(morpholin-4-yl)-8-(1H-pyrazol-3-yl)-[1,7]naphthyridine]",0.228
7,"c1cc(-c2nccc3c(-c4cc[nH]c4)cc(N4CCOCC4)nc23)[nH]n1 [Example 212, 2-(morpholin-4-yl)-8-(1H-pyrazol-5-yl)-4-(1H-pyrrol-3-yl)-1,7-naphthyridine]",> 20
8,"O=C1OCCC1Oc1cc(N2CCOCC2)nc2c(-c3ccn[nH]3)nccc12 (centres unmarked) [Example 47, 3-{[2-(morpholin-4-yl)-8-(1H-pyrazol-5-yl)-1,7-naphthyridin-4-yl]oxy}dihydrofuran-2(3H)-one]",1.39
9,"C[C@@H]1COCCN1c1cc(-c2cc(F)ccc2N)c2ccnc(-c3ccn[nH]3)c2n1 [Example 75, 4-fluoro-2-[2-[(3R)-3-methylmorpholin-4-yl]-8-(1H-pyrazol-5-yl)-1,7-naphthyridin-4-yl]aniline]",0.00697
10,"Cn1cc(-c2cc(N3CCOCC3)nc3c(-c4ccn[nH]4)nccc23)cn1 [Example 367, 4-(1-methyl-1H-pyrazol-4-yl)-2-(morpholin-4-yl)-8-(1H-pyrazol-5-yl)-1,7-naphthyridine]",0.215
11,"C[C@@H]1COCCN1c1cc(N=S(C)(=O)c2ccccc2F)c2ccnc(-c3ccn[nH]3)c2n1 (single isomer, unassigned) [Example 141]",0.386
12,"Fc1ncccc1-c1cc(N2CCOCC2)nc2c(-c3ccn[nH]3)nccc12 [Example 359, 4-(2-fluoropyridin-3-yl)-2-(morpholin-4-yl)-8-(1H-pyrazol-5-yl)-1,7-naphthyridine]",0.0855
13,"CC[S+]([O-])c1cc(N2CCOCC2)nc2c(-c3ccn[nH]3)nccc12 (centres unmarked) [Example 195, 4-ethylsulfinyl-2-(morpholin-4-yl)-8-(1H-pyrazol-5-yl)-1,7-naphthyridine]",0.0714
14,"O=C(c1cccc(-c2cc(N3CCOCC3)nc3c(-c4ccn[nH]4)nccc23)c1)N1CCCCC1 [Example 328, {3-[2-(morpholin-4-yl)-8-(1H-pyrazol-5-yl)-1,7-naphthyridin-4-yl]phenyl}(piperidin-1-yl)methanone]",0.296
15,"CS(=N)(=O)CCCOc1cc(N2CCOCC2)nc2c(-c3ccn[nH]3)nccc12 (centres unmarked) [Example 42, 4-[3-(S-methylsulfonimidoyl)propoxy]-2-(morpholin-4-yl)-8-(1H-pyrazol-5-yl)-1,7-naphthyridine]",0.484
16,"CCS(=O)(=O)N1CCN(c2cc(N3CCOCC3)nc3c(-c4ccn[nH]4)nccc23)CC1 [Example 433, 4-[4-(ethylsulfonyl)piperazin-1-yl]-2-(morpholin-4-yl)-8-(1H-pyrazol-5-yl)-1,7-naphthyridine]",0.0416
17,"Cc1cccc(-c2cc(N3CCOCC3)nc3c(-c4ccn[nH]4)nccc23)c1 [Example 308, 4-(3-methylphenyl)-2-(morpholin-4-yl)-8-(1H-pyrazol-5-yl)-1,7-naphthyridine]",0.131
18,"c1cc(-c2cc(N3CCOCC3)nc3c(-c4ccn[nH]4)nccc23)c2ccncc2c1 [Example 397, 4-(isoquinolin-5-yl)-2-(morpholin-4-yl)-8-(1H-pyrazol-5-yl)-1,7-naphthyridine]",0.0955
19,"Cc1ccccc1-c1cc(N2CCOCC2)nc2c(-c3ccn[nH]3)nccc12 [Example 318, 4-(2-methylphenyl)-2-(morpholin-4-yl)-8-(1H-pyrazol-5-yl)-1,7-naphthyridine]",0.0306

# Same assay, conditions: tracer B, TR-FRET; read-out: ATR binding (tracer B) IC50
row,SMILES,IC50 [µM]
1,"Cc1cc(N2CCOCC2)nc2c(-c3cc[nH]n3)nccc12 [Example 20, 4-methyl-2-(morpholin-4-yl)-8-(1H-pyrazol-3-yl)-[1,7]naphthyridine hydrochloride]",0.32
2,"CCOc1cc(N2CCOCC2)nc2c(-c3cc[nH]n3)nccc12 [Example 43, 4-ethoxy-2-(morpholin-4-yl)-8-(1H-pyrazol-3-yl)-[1,7]naphthyridine]",0.258
3,"C[C@@H]1COCCN1c1cc(S(C)(=O)=O)c2ccnc(-c3ccn[nH]3)c2n1 [Example 33, 2-[(3R)-3-methylmorpholin-4-yl]-4-(methylsulfonyl)-8-(1H-pyrazol-5-yl)-1,7-naphthyridine]",0.0103
4,"CN1CC=C(c2cc(N3CCOCC3)nc3c(-c4ccn[nH]4)nccc23)CC1 [Example 14, 4-(1-methyl-1,2,3,6-tetrahydropyridin-4-yl)-2-(morpholin-4-yl)-8-(1H-pyrazol-5-yl)-1,7-naphthyridine]",0.0799
5,"c1cc2c(C3CC3)cc(N3CCOCC3)nc2c(-c2cc[nH]n2)n1 [Example 18, 4-cyclopropyl-2-(morpholin-4-yl)-8-(1H-pyrazol-3-yl)-[1,7]naphthyridine]",0.0751
6,"CS(=N)(=O)CCCOc1cc(N2CCOCC2)nc2c(-c3ccn[nH]3)nccc12 (centres unmarked) [Example 42, 4-[3-(S-methylsulfonimidoyl)propoxy]-2-(morpholin-4-yl)-8-(1H-pyrazol-5-yl)-1,7-naphthyridine]",0.533
